In article PMC4595804, “A strategy to discover decoy chemokine ligands with an anti-inflammatory activity” (Scientific Reports, 2015) one finds IC50 and inhibition data, which are given here for two molecules.

As usually defined, the inhibition is the percentage by which the read-out fell short of the control.

For experiment [1], the target named is T1, CCL22 (Homo sapiens, UniProt O00626).
T1 construct: codes for the mature CCL17 or CCL22 with an N-terminal thioredoxin-hexahistidin (TRX- (His)6) tag; thioredoxin (TRX) (N, cleaved yes); (His)6 (N, cleaved yes); made in house; host or cells: E. coli BL21 (DE3)
T1 sequence (O00626 25-93): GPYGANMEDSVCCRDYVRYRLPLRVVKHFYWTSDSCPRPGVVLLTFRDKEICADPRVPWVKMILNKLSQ
The experiment is described as follows: CCL22-induced EGFP-CCR4 receptor internalization (flow cytometry). To be noted: 100 nM CCL22, 30 min, 0.03–3 μM compound; read-out: half-maximal efficiency, reduction of CCL22-induced CCR4 internalization. The class given is cell-based. As for the experimental part:
Figure 6 (a) Selectivity of CCL17 and CCL22 neutraligands towards 10 chemokines according to the “neutraligand protocol”. […] Each column represents the mean (block) ± SD (bars) of n = 3 experiments performed in triplicate. *p < 0.05; **p < 0.01; ***p < 0.005 as compared to chemokine + DMSO. (b) Chemokine neutraligands inhibited CCR4 endocytosis induced by CCL22 or CCL17. EGFP-CCR4^+ HEK cells were incubated for 30 min with DMSO or chemokine (100 nM CCL22 or CCL17) in the presence or absence of test compounds. […] Cell surface EGFP-tagged CCR4 receptors were measured by EGFP antibody labeling and flow cytometry analysis. CCR4 internalization was expressed as a percentage of total receptor surface expression calculated using control cells incubated with DMSO (100%). Each column represents the mean (block) ± SD (bars) of n = 3 experiments performed in triplicate. *p < 0.05; **p < 0.01; ***p < 0.005 as compared to chemokine alone. (c,d) Inhibition of CCL17 and CCL22- induced CCR4^+HUT78 T cell chemotaxis by neutraligands. […] The number of migrating cells in the presence of chemokine and compounds were expressed as the corresponding percentages. Results were analyzed by fitting the experimental curves (% of migrating cells vs log compound concentration) using the Kaleidagraph software program, and the corresponding IC50 values were calculated. […]
On the technique in general: In flow cytometry, cells or beads pass a laser one at a time.

Experiment [2] addresses T2, CCL17 (Homo sapiens, UniProt Q92583).
T2 construct: codes for the mature CCL17 or CCL22 with an N-terminal thioredoxin-hexahistidin (TRX- (His)6) tag; thioredoxin (TRX) (N, cleaved yes); (His)6 (N, cleaved yes); made in house; host or cells: E. coli BL21 (DE3)
T2 sequence (Q92583 24-94): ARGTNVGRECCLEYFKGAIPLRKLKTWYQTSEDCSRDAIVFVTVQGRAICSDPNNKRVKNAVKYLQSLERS
Briefly: Scratch wound assay, CCL17-mediated HaCat cell migration. The class given is cell-based. Conditions: HaCat cells, 72 h, read-out: inhibition of CCL17-mediated wound closure. As for the experimental part: soluble formazan dye which can be detected by absorbance at 420-480nm. HUT78 T cells (or HaCat cells) were seeded on 24-well plates (200,000 cells per well) and were incubated […]
concentration ≤1% on cells). The background control was reserved as one well containing the culture medium only. The plates were incubated for 72h at 37°C. Three days later, the medium containing the neutraligands was removed, and WST-1 reagent (1:10 final dilution) (Ozyme) was added to each well for a 2h incubation at 37°C as the manufacturer’s recommendation. The plates were shaken and absorbance was measured at 450nm (reference wavelength 690nm) against the background control, using a multiwell plate reader (EnVision, Perkin Elmer). Assays were performed as three independent replicates.
In vitro cell migration assay (scratch wound test) […]
the wound closure was determined as the difference between wound width at times 0 and 72h. […]
doses). After 24h, cytotoxicity was evaluated in the wells using the Alamar Blue method. […]
before AA treatment. The activity of COX2 was determined by measuring PGE2 (Cayman) in the supernatants by EIA. […]

On to `O=C(OCC(O)CO)c1ccccc1O` (centres unmarked) [GPN136, 2,3-dihydroxypropyl 2-hydroxybenzoate], for which, in experiment [1], the IC50 is approximately 100 nM.

As to `CC(C)=CCn1cnc2c1c(=O)n(C)c(=O)n2C` [GPN279, 1,3-dimethyl-7-(3-methylbut-2-enyl)-1H-purine-2,6(3H, 7H)-dione], in experiment [2], the inhibition at 10 µM came out at 81.4%.
